Test results taken from the NIST ThermoML archive (doi:10.1016/j.fluid.2012.11.009).
Several values for one entry are separate records, joined by “and”; a condition that tells them apart may be missing. Identical values can stand only once. ± gives the expanded uncertainty stated by the source.

Conditions: Liquid, Distillation

Structure (SMILES): CC(O)CNCC(C)O (centres undefined) [N-(2-hydroxypropyl)-2-hydroxy-1-propanamine]
- vapor or sublimation pressure (420 K): 2.8 ± 2.4 kPa
- vapor or sublimation pressure (422 K): 3 ± 2.4 kPa and 3.1 ± 2.4 kPa
- vapor or sublimation pressure (428 K): 4 ± 2.4 kPa and 4.4 ± 2.4 kPa
- vapor or sublimation pressure (429 K): 4.1 ± 2.4 kPa
- vapor or sublimation pressure (433 K): 4.9 ± 2.4 kPa and 5.1 ± 2.4 kPa
- vapor or sublimation pressure (437 K): 5.9 ± 2.5 kPa
- vapor or sublimation pressure (440 K): 6.8 ± 2.5 kPa
- vapor or sublimation pressure (441 K): 7 ± 2.5 kPa
- vapor or sublimation pressure (444 K): 7.8 ± 2.5 kPa and 7.9 ± 2.5 kPa
- vapor or sublimation pressure (447 K): 8.9 ± 2.5 kPa
- vapor or sublimation pressure (448 K): 9.9 ± 2.5 kPa
- vapor or sublimation pressure (449 K): 9.9 ± 2.5 kPa
- vapor or sublimation pressure (450 K): 10.1 ± 2.6 kPa
- vapor or sublimation pressure (451 K): 10.6 ± 2.5 kPa and 10.8 ± 2.5 kPa
- vapor or sublimation pressure (452 K): 10.9 ± 2.6 kPa
- vapor or sublimation pressure (453 K): 11.9 ± 2.6 kPa
- vapor or sublimation pressure (454 K): 11.8 ± 2.5 kPa and 11.9 ± 2.5 kPa
- vapor or sublimation pressure (456 K): 12.9 ± 2.6 kPa
- vapor or sublimation pressure (457 K): 13.1 ± 2.6 kPa and 13.9 ± 2.6 kPa
- vapor or sublimation pressure (458 K): 13.9 ± 2.7 kPa and 14 ± 2.7 kPa
- vapor or sublimation pressure (460 K): 14.9 ± 2.7 kPa
- vapor or sublimation pressure (461 K): 15.8 ± 2.6 kPa
- vapor or sublimation pressure (464 K): 17.2 ± 2.6 kPa
- vapor or sublimation pressure (465 K): 17.9 ± 2.6 kPa
